Data published in US8361988B2, “Nucleoside and nucleotide analogues with quaternary carbon centers and methods of use” (Institut de Recherches Cliniques de Montreal, priority 2007, dated 2013).

Key:
ZR-75-1 = assay: MTT cell proliferation assay, ZR-75-1; type: cell-based; conditions: Homo sapiens, concentration reducing cell growth by 50% after 72 hours, 1% DMSO
Protocol: (§1) The antitumor activities of the compounds of the invention were evaluated by a cellular proliferation assay. The MTT [3-(4,5-dimethylthiazol-2-yl)-2,5-diphenyltetrazolium bromide] cell proliferation assay, first described by Mosmann (Mosmann T., “Rapid colorimetric assay for cellular growth and survival: application to proliferation and cytotoxicity assays,” J. Immunol. Methods 1983 Dec. 16; 65(1-2):55-63, and incorporated by reference in its entirety) is based on the ability of active mitochondrial reductase enzymes from viable cells to cleave the tetrazolium rings of the pale yellow MTT. The cleavage reaction form a purple formazan crystals which is largely impermeable to cell membranes resulting in its accumulation within healthy cells. Solubilisation of the cells by addition of a detergent liberates and solubilizes the formazan crystals. The number of surviving cells is directly proportional to the level of the formazan product created. The color can then be quantified spectrophotometrically. The production of purple formazan in cells treated with a compound is measured relative to the production in control cells, and dose-response curves can be generated. This assay measures the cell proliferation rate and conversely, when metabolic events lead to apoptosis or necrosis, the reduction in cell viability, thus also allowing the evaluation of the cytotoxicity of the analogues synthesized in the laboratory.
(§2) For Tables 3 and 4, the assays were performed with 1% DMSO. The abbreviation “n.d.” means “not determined.” The values EC50, CC50, and SI have the following definitions.
(§3) Cell growth equals total cell count without any inhibitor after 72 hours minus initial cell count. Total cell counts after 72 hrs of growth range from 230 to 346% of initial cell counts depending on the cell line.
(§4) Total cell counts after 24 hrs of growth range from 103 to 109% of initial cell counts depending on the cell line.
(§5) SI: Selectivity Index is the ratio CC50/EC50.

[1] = MTT cell proliferation assay, ZR-75-1; type: cell-based; conditions: human, ZR-75-1 cells, concentration causing 50% cell death of initial cell count over 24 hours, 1% DMSO
Protocol: as §1, §2, §3, §4, §5

[2] = MTT cell proliferation assay, Panc 02.03; type: cell-based; conditions: human, Panc 02.03 cells, concentration causing 50% cell death of initial cell count over 24 hours, 1% DMSO
Protocol: (§6) The antitumor activities of the compounds of the invention were evaluated by a cellular proliferation assay. […] The cleavage reaction form a purple formazan crystals which is largely impermeable to cell membranes resulting in its accumulation within healthy cells. Solubilisation of the cells by addition of a detergent liberates and solubilizes the formazan crystals. The number of surviving cells is directly proportional to the level of the formazan product created. The color can then be quantified spectrophotometrically. The production of purple formazan in cells treated with a compound is measured relative to the production in control cells, and dose-response curves can be generated. This assay measures the cell proliferation rate and conversely, when metabolic events lead to apoptosis or necrosis, the reduction in cell viability, thus also allowing the evaluation of the cytotoxicity of the analogues synthesized in the laboratory.
as §2
(§7) Cell growth equals total cell count without any inhibitor after 72 hours minus initial cell count.
as §5

Panc 02.03 = assay: MTT cell proliferation assay, Panc 02.03; type: cell-based; conditions: Homo sapiens, concentration reducing cell growth by 50% after 72 hours, 1% DMSO
Protocol: as §6, §2, §7, §5

in vitro [3] = conditions: human, NCI H1395 cells
in vitro [4] = conditions: human, NCI H2052 cells
[5] = target: T1, Drosophila melanogaster dNK (Drosophila melanogaster, UniProt Q9XZT6); assay: Phosphorylation assay (spectrophotometric coupled-enzyme), D. melanogaster dNK; type: biochemical; conditions: substrate at 100 μM; 37° C.; 1 mM ATP; triplicate
T1 sequence (Q9XZT6 1-250): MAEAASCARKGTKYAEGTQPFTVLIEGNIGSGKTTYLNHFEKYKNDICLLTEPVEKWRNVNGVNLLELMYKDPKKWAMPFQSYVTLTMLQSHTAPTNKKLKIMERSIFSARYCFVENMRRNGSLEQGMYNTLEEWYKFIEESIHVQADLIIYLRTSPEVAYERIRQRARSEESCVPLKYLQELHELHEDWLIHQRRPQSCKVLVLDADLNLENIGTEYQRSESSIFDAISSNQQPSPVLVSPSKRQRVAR
Protocol: (§8) Compounds of the invention were also tested in a phosphorylation assay using three deoxynucleoside kinases. […] The compounds were at substrate concentration of 100 μM.
(§9) Kinetic assay. […] Briefly, the individual nucleosides at 100 μM were prepared in reaction buffer containing 50 mM Tris-HCl (pH 7.5), 0.1 M KCl, 5 mM MgCl2, 1 mM DTT, 1 mM ATP, 0.21 mM phosphoenolpyruvate, 0.18 mM NADH, and 2 units/ml pyruvate kinase and 2 units/ml lactate dehydrogenase (Roche Biochemicals, Indianapolis, Ind.). Assays were performed at 37° C. by measuring the absorbance change at 340 nm. The enzyme amount was adjusted to limit NADH turnover to 10% over the time of the experiment. All experiments were performed in triplicate.

human dCK = human dCK (Homo sapiens, UniProt P27707); assay: Phosphorylation assay (spectrophotometric coupled-enzyme), human dCK; type: biochemical; conditions: substrate at 100 μM; 37° C.; 1 mM ATP; triplicate
Protocol: as §8, §9

[6] = MTT cell proliferation assay, PFSK-1; type: cell-based; conditions: human, PFSK-1 cells, concentration causing 50% cell death of initial cell count over 24 hours, 1% DMSO
Protocol: as §6, §2, §7, §5

PFSK-1 = assay: MTT cell proliferation assay, PFSK-1; type: cell-based; conditions: Homo sapiens, concentration reducing cell growth by 50% after 72 hours, 1% DMSO
Protocol: as §6, §2, §7, §5

in vitro [7] = conditions: human, MOLT-4 cells

human dCK, sequence (P27707 whole entry): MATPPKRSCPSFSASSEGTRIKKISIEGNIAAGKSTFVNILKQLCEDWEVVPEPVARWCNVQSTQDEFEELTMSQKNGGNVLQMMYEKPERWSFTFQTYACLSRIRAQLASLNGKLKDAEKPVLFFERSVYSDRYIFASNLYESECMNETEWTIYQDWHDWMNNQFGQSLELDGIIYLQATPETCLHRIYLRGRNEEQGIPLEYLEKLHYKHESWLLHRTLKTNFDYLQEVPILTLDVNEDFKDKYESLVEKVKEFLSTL

| Structure (SMILES) | D. melanogaster dNK substrate phosphorylation [5] | Human dCK kinase substrate phosphorylation (human dCK) | EC50 (ZR-75-1; ZR-75-1, 72 h) | CC50 at 24 h [1] | CC50 at 24 h [2] | EC50 (Panc 02.03) | CC50 at 24 h (in vitro [3]) | CC50 at 24 h (in vitro [4]) | CC50 at 24 h [6] | EC50 (PFSK-1; PFSK-1, 72 h) | EC50 (ZR-75-1) | CC50 at 24 h (in vitro [7]) | EC50 (PFSK-1) |
| --- | --- | --- | --- | --- | --- | --- | --- | --- | --- | --- | --- | --- | --- |
| COC(=O)c1cn([C@H]2S[C@@H](CO)C(O)[C@@H]2O)nn1 (stereo partly shown) [LCB-1013] | <0.1 10^6 μmol/min mg | <1 10^−3 μmol/min mg |  |  |  |  |  |  |  |  |  |  |  |
| Nc1ccn([C@@H]2O[C@H](CO)[C@@H](O)[C@@H]2O)c(=O)n1 [Cytarabine, reference compound] |  |  |  | > 500 µM | > 500 µM | 300 µM | 428 µM | > 500 µM | > 500 µM |  | > 500 µM | > 500 µM | 360 µM |
| CC1(CO)CC(n2ccc(N)nc2=O)O[C@@H]1CO (mixture of isomers) [LCB-1012] | 5.94 10^6 μmol/min mg | 17 10^−3 μmol/min mg | > 500 µM | > 500 µM |  |  | > 500 µM | > 500 µM | > 500 µM | > 500 µM |  |  |  |

Second part, led by results:

| D. melanogaster dNK substrate phosphorylation [5] | Human dCK kinase substrate phosphorylation (human dCK) | Structure (SMILES) | EC50 (ZR-75-1; ZR-75-1, 72 h) | CC50 at 24 h [1] | CC50 at 24 h [2] | EC50 (Panc 02.03) | CC50 at 24 h (in vitro [3]) | CC50 at 24 h (in vitro [4]) | CC50 at 24 h [6] | EC50 (PFSK-1; PFSK-1, 72 h) | EC50 (ZR-75-1) | CC50 at 24 h (in vitro [7]) | EC50 (PFSK-1) |
| --- | --- | --- | --- | --- | --- | --- | --- | --- | --- | --- | --- | --- | --- |
| 0.2 10^6 μmol/min mg | 63 10^−3 μmol/min mg | CC1(C(N)=O)CC(n2ccc(N)nc2=O)O[C@@H]1CO (mixture of isomers) [LCB-1018] | > 500 µM | > 500 µM | > 500 µM | > 500 µM | > 500 µM | > 500 µM | > 500 µM | > 500 µM |  |  |  |
| 0.35 10^6 μmol/min mg | 12 10^−3 μmol/min mg | CC1(CO)C[C@H](n2ccc(N)nc2=O)O[C@@H]1CO (mixture of isomers) [LCB-1011] | > 500 µM | > 500 µM |  |  | > 500 µM | > 500 µM | > 500 µM | > 500 µM |  |  |  |
